Results published in patent US20090054527A1, “Administration of capsaicinoids” (AlgoRx, priority 2002, published 2009).
Values joined by “and” are separate entries in the source; they are usually repeats but may differ in a detail not shown here. Equal entries are not always repeated. Where two headings read alike, the source gives them in different places.

Legend:
[1] = test system: inflammatory and neuropathic pain; details: formalin test and spinal nerve ligation; cited from earlier work
[2] = human, in vivo; cited from earlier work
clinical = experiment: clinical; parameters: species or system human; details: in vivo
Experimental: The pharmacokinetic parameters of Cmax, Tmax, AUC(0−tlast) and t½ were evaluated.

[3] = test system: subjects with osteoarthritis of the knee; experiment: Osteoarthritis of the knee efficacy study (Phase 2): NRS pain score; format: in vivo, human; details: 1000 μg intra-articular, three weeks following administration, P=0.03
Experimental: The study is designed to include 12 evaluation subjects (Patients suffering a defined pain: >40 mm on VAS). […] Patients are treated randomly and in double-blind fashion. Gross and microscopic pathology analysis are completed for each treatment group. Each subject has 3 study visits: a Screening Day (Day −7 to −1), the Treatment Day (Day 0), and a Post-Treatment Day (scheduled for Day +2, +4, +7, or +14). On the Treatment Day the subject is randomized, pre-treatment evaluation is performed. The patient is brought into the procedure room, and a VAS pain score is taken (0 mm—no pain, 100 mm—extreme pain). Once the patient marks his or her pain on the card, he/she is prepped for knee cannulation. Once the cannula is placed, the patient receives, by intra-articular infiltration, 3 mg/kg (maximum dose of 200 mg) of 2% lignocaine into the knee scheduled to be replaced.
VAS pain scores as well as verbal reports are taken immediately following administration, as well as prior to knee replacement surgery. On the Post-Treatment Day, a study evaluation is performed followed by the scheduled knee replacement, with intra-operative bone and soft tissue biopsies performed for subsequent examination. […]
Changes in NRS (Numerical Rating Scale) pain scores were measured at three weeks following administration.

[4] = test system: radiation induced hyperalgesia; details: systemic, cited from earlier work
[5] = test system: subjects with osteoarthritis of the knee; experiment: Osteoarthritis of the knee safety study (Phase 1): intra-articular purified capsaicin after lignocaine; safety, tolerability, VAS pain; format: in vivo, human
Experimental: The primary objective of the study was to evaluate the safety and tolerability of intra-articular capsaicin, when co-administered with intra-articular local anesthetic, compared to placebo, in subjects with end-stage osteoarthritis of the knee, already scheduled to receive knee replacements.
The study was designed to include 16 evaluation subjects. […] Sixteen subjects completed the study.
Patients were treated randomly and in double-blind fashion in four treatment groups, with each group having a progressively longer interval between the intra-articular administration of study medication and subsequent total knee replacement (2, 4, 7, and 14 days). […] Gross and microscopic pathology analysis was completed for each treatment group before the next treatment group was treated.
Each subject had 3 study visits: a Screening Day (Day −7 to −1), the Treatment Day (Day 0), and a Post-Treatment Day (scheduled for Day +2, +4, +7, or +14). On the Treatment Day the subject was randomized, pre-treatment evaluation was performed. The patients were brought into the procedure room, and a VAS pain score was taken (0 mm—no pain, 100 mm—extreme pain). Once the patient had marked his or her pain on the card, he/she was prepped for knee cannulation. Once the cannula was placed, the patient received by intra-articular infiltration, 3 mg/kg (maximum dose of 200 mg) of 2% lignocaine into the knee scheduled to be replaced.
VAS pain scores as well as verbal reports were taken immediately following administration, as well as prior to knee replacement surgery. No subjects discontinued from the study due to adverse events.
On the Post-Treatment Day, study evaluation was performed followed by the scheduled knee replacement, with intra-operative bone and soft tissue biopsies performed for subsequent examination. […] This therefore left the 3 placebo and 9 active patients from the 4 day, 7 day, and 14 day cohorts.

[6] = test system: subjects undergoing transpositional osteotomy (bunionectomy); experiment: Bunionectomy efficacy study (Phase II): capsaicin dripped into the wound before closure; VAS pain and rescue medication; format: in vivo, human; details: for VAS pain score at the operation site (mean +/− SEM): 1000 μg, n = 11
Experimental: The primary efficacy endpoint was the proportion of subjects in each treatment group requiring opioid analgesia in the first 24 hours post-operatively. The proportions were compared amongst treatment groups using the Cochran-Haenszel test. Secondary efficacy end points included: i) proportion of subjects in each treatment group requiring opioid analgesia in the first 36 hour period post-operatively (Similarly, the proportions were compared amongst treatment groups using the Cochran-Haenszel test); ii) proportion of subjects in each treatment group requiring opioid analgesia in the 10 day period post-operatively (Similarly, the proportions were compared amongst treatment groups using the Cochran-Haenszel test); iii) time to first usage of opioid analgesia in each treatment group (a survival analysis approach will be used: the product-limit (Kaplan-Meier) method will be applied to time to first usage of opioid analgesia. The median time to first usage of opioid analgesia will be estimated in both treatment groups. Pairwise comparisons will be performed to test for equality of the survival curves between the 2 treatment groups using both the log-rank and the Wilcoxon test); iv) total usage of analgesia in each treatment group (the total usage of analgesia will be compared by an analysis of variance with treatment and center as independent variables. A pairwise comparison will be performed between the treatment groups); and v) VAS assessment of pain at the site of operation in each treatment group (The VAS score at each time point will be compared by an analysis of variance with treatment and center as independent variables. A pairwise comparison will be performed between the treatment groups). […] The efficacy analysis was performed on the data obtained ten days postoperatively. The safety analysis was performed based on the safety data for the entire study, including the 6 week and 12 week follow-up periods. The blind was broken at the time the efficacy analysis was performed. However, the individual treatment assignment was available to the statistical analysis group only. All other personnel involved in the study, including the Investigator, study monitor and proprietary staff, remained blinded until the entire study was completed.
The study was designed to include 40 evaluation subjects. […] Each subject had six (6) study visits: a Screening Day (Day −28 to −1), an Operation Day (Day 0), and four (4) Follow-up visits (scheduled for Days 3, 10 and weeks 6 and 12).
On Operation Day (Day 0) the following was performed: a) Pre-operation: Prior to the initiation of an ankle block, inclusion/exclusion criteria assessment was performed. […] Immediately prior to wound closure, the Investigator slowly dripped the study medication (4 mL) from a syringe into the wound, ensuring even tissue exposure. The wound was then be closed according to normal practices and procedures.
In the 24 hours following administration of study medication, vital signs (supine pulse rate and blood pressure) were recorded at 1, 2, 4 and 24 hours post administration. VAS assessment of pain at the operation site was performed at 1, 4, 8, 12 and 24 hours post administration. In those instances where VAS measurements coincide with blood sampling procedures, the VAS assessment was performed first. […] The quantity of each blood sample was 10 mL. Laboratory safety assessments, e.g., haematology, biochemistry, urinalysis were performed at 24 hours post administration. Adverse events were spontaneously reported by the subject and recorded. Rescue analgesia medication was provided to the subject if required (initially diclofenac 50 mg, repeated at 8 hourly intervals if necessary). When diclofenac was judged by the Investigator to provide inadequate pain relief then the subject was provided with alfentanil 1 mg, repeated at 6 hourly intervals, if necessary.

[7] = cited from earlier work

CN(C)CCC=C1c2ccccc2CCc2ccccc21 [amitriptyline]
action when administered locally [1]: produced local antinociceptive actions

CNCCCN1c2ccccc2CCc2ccccc21 [desipramine]
action when administered locally [1]: produced local antinociceptive actions

CN1C(C(=O)Nc2ccccn2)=C(O)c2ccccc2S1(=O)=O [piroxicam]
patients experiencing gross bleeding and ulceration [2]: up to 4%

COc1cc(CNC(=O)CCCC/C=C/C(C)C)ccc1O [purified capsaicin, N-(4-hydroxy-3-methoxybenzyl)-8-methylnon-trans-6-enamide]
Tmax (clinical; human, 300 ug): 30 min
half-life (clinical; human, 300 ug, terminal exponential half life, per subject): 19.6 min
plasma concentrations compared with the 100 μg and 300 μg dose groups (clinical): clearly lower
final NRS (Numerical Rating Scale) pain score [3]: 3.97
effect on radiation induced hyperalgesia ([4]; final doses of 25 mg/kg or less, prior to ultra violet radiation): prevented radiation induced hyperalgesia
effect on pain threshold ([4]; final doses of 25 mg/kg or less): did not elevate the pain threshold above normal range
effect on pain threshold ([4]; final doses of 50 mg/kg or greater): pain threshold elevated
incidence of post injection hyperalgesia ([5]; 10 μg dose group): no subjects
patients reporting transient burning pain immediately following instillation ([5]; 10 μg intra-articular): 0 of 4
duration of post-administration (hyper)algesic pain, per subject ([5]; 100 μg dose group): 9 min
incidence of post injection hyperalgesia ([5]; 100 μg dose group): 1 subject
subjects requiring intervention for post-injection (hyper)algesia ([5]; 100 μg dose group): 1 subject
patients reporting transient burning pain immediately following instillation ([5]; 100 μg intra-articular): 1 of 4
duration of post-administration (hyper)algesic pain, per subject ([5]; 300 μg dose group): 17 minutes and 25 minutes (2×) and 42 minutes
incidence of post injection hyperalgesia ([5]; 300 μg dose group): 4 subjects
subjects requiring intervention for post-injection (hyper)algesia ([5]; 300 μg dose group): 4 subjects
patients reporting transient burning pain immediately following instillation ([5]; 300 μg intra-articular): 4 of 4
reduction of VAS pain score, before administration vs day of surgery ([5]; 9 active patients of the 4, 7 and 14 day cohorts, doses 10-300 μg pooled): 62±14%
effects on laboratory safety parameters or vital signs ([5]; 10-300 μg intra-articular): no treatment related effects
effects on soft tissue, cartilage or bone upon histopathological examination ([5]; 10-300 μg intra-articular): no treatment related effects
erythema, edema or hemorrhage at the site of injection ([5]; 10-300 μg intra-articular): no treatment related signs
gross and microscopic pathology ([5]; 10-300 μg intra-articular): normal
leakage of study drug from the joint space ([5]; 10-300 μg intra-articular): low leakage
systemic side effects ([5]; 10-300 μg intra-articular): No treatment related systemic side effects
median decrease from baseline to pre-operative time point in VAS for pain at the target knee, vs placebo ([5]; all 3 capsaicin dose groups): substantially greater
tolerability ([5]; all dose levels (10, 100, 300 μg)): well tolerated
onset of post-administration (hyper)algesia after administration ([5]; all episodes, 100 and 300 μg): ≤ 5 min
effect on proprioception at the injected knee ([5]; any dose group, any time point): no discernable effect
indication of efficacy on VAS pain ([5]; any of the dose levels (10, 100, 300 μg)): No clear treatment related indication of efficacy
time at which a subject required rescue, per subject ([6]; 1000 μg prior to wound closure): 1 h and 4 h and 5 h and 8 h and 12 h
study subjects requiring rescue ([6]; 1000 μg prior to wound closure, 72 hours, n=11): 45%
subjects that did not rescue in 72 hours ([6]; 1000 μg prior to wound closure, n=11): 6 subjects
VAS pain score at the operation site (mean +/− SEM) ([6]; 1 hr): 11.1 +/− 7.3
VAS pain score at the operation site (mean +/− SEM) ([6]; 8 hr): 5.5 +/− 2.3
VAS pain score at the operation site (mean +/− SEM) ([6]; 12 hr): 8.2 +/− 3.8
VAS pain score at the operation site (mean +/− SEM) ([6]; 24 hr): 1.9 +/− 1.0
VAS pain score at the operation site (mean +/− SEM) ([6]; 48 hr): 5.9 +/− 2.5
VAS pain score at the operation site (mean +/− SEM) ([6]; 72 hr): 10.6 +/− 3.5
solubility in alcohol, ether, benzene and chloroform [7]: freely soluble
solubility in water [7]: practically insoluble
